Experimental data reported in article PMC11868595, “Safety, pharmacokinetics and efficacy of HA121-28 in patients with advanced solid tumors and RET fusion-positive non-small-cell lung cancer: a multicenter, open-label, single-arm phase 1/2 trial” (Signal Transduction and Targeted Therapy, 2025).
Read-outs that look alike come from different tables or passages of the source.

Key:
HCT116 cells = test: Tumor cell proliferation in vitro; assay type: cell-based
BEL-7402 cells = test: Tumor cell proliferation in vitro; assay type: cell-based; conditions: BEL-7402
[1] = Tissue distribution in rats; assay type: in vivo; conditions: for time of distribution peak: intragastric
[2] = 28-day repeated dose toxicity; assay type: in vivo, Beagle dogs
ALK1 = ALK1 (Homo sapiens, UniProt P37023); test: Tyrosine kinase inhibition; assay type: biochemical
AXL = AXL (Homo sapiens, UniProt P30530); test: Tyrosine kinase inhibition; assay type: biochemical
C-KIT = C-KIT (Homo sapiens, UniProt P10721); test: Tyrosine kinase inhibition; assay type: biochemical
Chain of C-KIT (P10721 26-976): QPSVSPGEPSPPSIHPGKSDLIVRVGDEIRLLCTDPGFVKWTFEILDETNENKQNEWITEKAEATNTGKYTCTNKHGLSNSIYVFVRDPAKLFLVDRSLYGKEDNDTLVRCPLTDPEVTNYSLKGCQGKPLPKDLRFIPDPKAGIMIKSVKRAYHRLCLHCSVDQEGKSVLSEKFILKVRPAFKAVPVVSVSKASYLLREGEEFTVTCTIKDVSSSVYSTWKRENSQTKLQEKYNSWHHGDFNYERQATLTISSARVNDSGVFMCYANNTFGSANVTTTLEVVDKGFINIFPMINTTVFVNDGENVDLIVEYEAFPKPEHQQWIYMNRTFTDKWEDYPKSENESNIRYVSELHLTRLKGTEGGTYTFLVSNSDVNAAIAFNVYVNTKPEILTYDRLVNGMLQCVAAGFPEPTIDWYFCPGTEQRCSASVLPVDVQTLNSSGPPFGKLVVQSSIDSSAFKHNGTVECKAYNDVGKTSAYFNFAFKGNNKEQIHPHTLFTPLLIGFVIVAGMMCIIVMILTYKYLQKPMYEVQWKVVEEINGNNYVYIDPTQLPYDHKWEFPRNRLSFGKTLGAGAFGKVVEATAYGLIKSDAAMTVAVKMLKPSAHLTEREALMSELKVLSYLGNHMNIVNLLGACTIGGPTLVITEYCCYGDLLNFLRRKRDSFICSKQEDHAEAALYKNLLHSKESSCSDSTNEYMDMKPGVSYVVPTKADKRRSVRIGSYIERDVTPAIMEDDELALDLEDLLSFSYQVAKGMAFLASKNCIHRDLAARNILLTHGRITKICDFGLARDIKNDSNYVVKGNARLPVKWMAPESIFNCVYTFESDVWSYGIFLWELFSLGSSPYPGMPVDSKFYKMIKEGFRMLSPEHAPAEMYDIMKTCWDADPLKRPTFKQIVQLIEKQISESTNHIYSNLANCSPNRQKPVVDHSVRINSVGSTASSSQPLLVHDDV

Chain of ALK1 (P37023 142-503 limits assumed): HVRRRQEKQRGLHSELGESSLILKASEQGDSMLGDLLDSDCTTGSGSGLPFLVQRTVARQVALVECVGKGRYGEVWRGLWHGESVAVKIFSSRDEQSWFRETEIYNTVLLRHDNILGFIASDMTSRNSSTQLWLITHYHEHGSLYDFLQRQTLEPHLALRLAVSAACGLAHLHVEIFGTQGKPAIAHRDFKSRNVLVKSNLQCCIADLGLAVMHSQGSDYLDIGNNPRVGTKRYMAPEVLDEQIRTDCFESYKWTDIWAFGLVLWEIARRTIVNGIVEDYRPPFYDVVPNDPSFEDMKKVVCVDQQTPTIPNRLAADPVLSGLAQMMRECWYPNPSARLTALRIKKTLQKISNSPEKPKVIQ
Chain of AXL (P30530 26-894): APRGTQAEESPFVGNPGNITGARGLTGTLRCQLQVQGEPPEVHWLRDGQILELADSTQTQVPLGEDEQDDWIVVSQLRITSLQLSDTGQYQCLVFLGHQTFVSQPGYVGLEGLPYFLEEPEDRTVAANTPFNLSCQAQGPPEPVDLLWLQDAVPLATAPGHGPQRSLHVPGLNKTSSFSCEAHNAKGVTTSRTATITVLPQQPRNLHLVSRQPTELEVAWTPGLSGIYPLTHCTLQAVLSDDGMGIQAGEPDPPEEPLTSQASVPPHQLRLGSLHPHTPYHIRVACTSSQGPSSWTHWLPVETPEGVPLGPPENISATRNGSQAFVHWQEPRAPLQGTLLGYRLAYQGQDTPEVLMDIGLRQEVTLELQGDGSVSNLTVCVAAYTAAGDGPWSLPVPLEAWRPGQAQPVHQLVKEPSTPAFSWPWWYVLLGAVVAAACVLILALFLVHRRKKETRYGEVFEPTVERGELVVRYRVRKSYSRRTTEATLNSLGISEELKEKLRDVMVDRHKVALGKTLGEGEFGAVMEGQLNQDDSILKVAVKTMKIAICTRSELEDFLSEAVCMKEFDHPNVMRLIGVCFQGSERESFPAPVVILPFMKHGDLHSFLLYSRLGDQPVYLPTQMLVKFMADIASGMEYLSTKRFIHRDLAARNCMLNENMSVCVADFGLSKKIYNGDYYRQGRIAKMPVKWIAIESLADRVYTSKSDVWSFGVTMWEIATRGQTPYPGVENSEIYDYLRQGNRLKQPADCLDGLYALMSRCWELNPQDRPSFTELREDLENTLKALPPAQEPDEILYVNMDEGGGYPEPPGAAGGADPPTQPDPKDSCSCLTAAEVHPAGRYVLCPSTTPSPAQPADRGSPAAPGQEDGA

COc1cc2c(Nc3ccc(Br)cc3F)ncnc2cc1OCCCCN(C)C.Cl.Cl [HA121-28, N-(4-bromo-2-fluorophenyl)-7-(4-(dimethylamino)butoxy)-6-methoxy quinazolin-4-amine dihydrochloride]
IC50 (HCT116 cells): 1420 ± 236 nM | IC50 (BEL-7402 cells; read-out: IC50): 10000 to 100000 nM | IC50 (BEL-7402 cells; read-out: IC50, proliferation): 9910 ± 202 nM | content at 72 h post-dose as fraction of distribution peak ([1]; adrenal glands): 1/8 | tissue AUC0-72h exposure relative to plasma ([1]; bone marrow): ≈ 1.3 times plasma | tissue AUC0-72h exposure relative to plasma ([1]; brain, adipose tissue, muscles): 3~9 times plasma | tissue AUC0-72h exposure relative to plasma ([1]; liver, kidneys, ovaries): ≈ 100 times plasma | time of distribution peak ([1]; liver, stomach, intestines): 0.5 h | time of distribution peak ([1]; most tissues): 4 h | tissue AUC0-72h exposure relative to plasma ([1]; spleen, lungs, adrenal glands): ≈ 200 times plasma | time of distribution peak ([1]; testes): 24 h | content at 72 h post-dose as fraction of distribution peak ([1]; uterus): 1/5 | tissue AUC0-72h exposure relative to plasma ([1]; uterus, testes, thymus, intestines, thyroid, heart, stomach): 20~60 times plasma | no observed adverse effect level (NOAEL) ([2]; 28 d, Beagle dog): 12 mg/kg | highest non-severely toxic dose (HNSTD) ([2]; oral, four consecutive weeks): 12 mg/kg | IC50 (ALK1): 2590 nM | IC50 (AXL): 589 nM | IC50 (C-KIT): > 10000 nM
